Data as given in patent US12043599B2, “Herbicidal compounds” (SYNGENTA PARTICIPATIONS AG, priority 2018, dated 2024).

Assays:
Format in all cases: in vivo
Details in all cases: 250 g/h, evaluated after 13 days
[1] = tested on: Echinochloa crus-galli (ECHCG); assay: Post-emergence herbicidal glasshouse test, percentage damage
Method: (§1) Seeds of a variety of test species are sown in standard soil in pots (Lolium perenne (LOLPE), Setaria faberi (SETFA), Alopecurus myosuroides (ALOMY), Echinochloa crus-galli (ECHCG), Avena fatua (AVEFA)). After cultivation for one day (pre-emergence) or after 8 days cultivation (post-emergence) under controlled conditions in a glasshouse (at 24/16° C., day/night; 14 hours light; 65% humidity), the plants are sprayed with an aqueous spray solution derived from the formulation of the technical active ingredient in acetone/water (50:50) solution containing 0.5% Tween 20 (polyoxyethelyene sorbitan monolaurate, CAS RN 9005-64-5). Compounds are applied at […]. The test plants are then grown in a glasshouse under controlled conditions in a glasshouse (at 24/16° C., day/night; 14 hours light; 65% humidity) and watered twice daily. After 13 days for pre and post-emergence, the test is evaluated for the percentage damage caused to the plant. The biological activities are shown in the following table on a five point scale (5=80-100%; 4=60-79%; 3=40-59%; 2=20-39%; 1=0-19%).

Lolium perenne (LOLPE) [2] = assay: as above
Method: as §1

Avena fatua (AVEFA) [3] = assay: as above
Method: as §1

Setaria faberi (SETFA) [4] = assay: as above
Method: as §1
Using procedures outlines above, wheat and barley crop plants and a weed species (SETFA) are treated post-emergence with compound A11 of the present invention or comparator compound C1 (Compound A-38 from WO2014/096289) at the application rates indicated. The compounds were also applied to wheat in conjunction with the safener compound cloquintocet-mexyl (CQC) at 50 g/ha.

Setaria faberi (SETFA) [5] = assay: Pre-emergence herbicidal glasshouse test, percentage damage
Method: as §1

[6] = tested on: Echinochloa crus-galli (ECHCG); assay: as above
Method: as §1

Lolium perenne (LOLPE) [7] = assay: as above
Method: as §1

Avena fatua (AVEFA) [8] = assay: as above
Method: as §1

Compound: CC#Cc1cc(C)c(C2C(=O)CC3(CCN(C(=O)c4cncs4)CC3)CC2=O)c(C)c1 [Compound A118]
- ECHCG POST percentage damage (five point scale) [1]: 5 (5=80-100%)
- LOLPE POST percentage damage (five point scale) (Lolium perenne (LOLPE) [2]): 5 (5=80-100%)
- AVEFA POST percentage damage (five point scale) (Avena fatua (AVEFA) [3]): 5 (5=80-100%)
- SETFA POST percentage damage (five point scale) (Setaria faberi (SETFA) [4]): 5 (5=80-100%)
- SETFA PRE percentage damage (five point scale) (Setaria faberi (SETFA) [5]): 5 (5=80-100%)
- ECHCG PRE percentage damage (five point scale) [6]: 5 (5=80-100%)
- LOLPE PRE percentage damage (five point scale) (Lolium perenne (LOLPE) [7]): 5 (5=80-100%)
- AVEFA PRE percentage damage (five point scale) (Avena fatua (AVEFA) [8]): 5 (5=80-100%)

Compound: CC#Cc1cc(C)c(C2C(=O)CC3(CCN(C(=O)c4cnccc4C)CC3)CC2=O)c(C)c1 [Compound A115]
- ECHCG POST percentage damage (five point scale) [1]: 5 (5=80-100%)
- LOLPE POST percentage damage (five point scale) (Lolium perenne (LOLPE) [2]): 5 (5=80-100%)
- AVEFA POST percentage damage (five point scale) (Avena fatua (AVEFA) [3]): 5 (5=80-100%)
- SETFA POST percentage damage (five point scale) (Setaria faberi (SETFA) [4]): 5 (5=80-100%)
- SETFA PRE percentage damage (five point scale) (Setaria faberi (SETFA) [5]): 5 (5=80-100%)
- ECHCG PRE percentage damage (five point scale) [6]: 5 (5=80-100%)
- LOLPE PRE percentage damage (five point scale) (Lolium perenne (LOLPE) [7]): 5 (5=80-100%)
- AVEFA PRE percentage damage (five point scale) (Avena fatua (AVEFA) [8]): 3 (3=40-59%)

Compound: CC#Cc1cc(C)c(C2C(=O)CC3(CCN(C(=O)c4csnn4)CC3)CC2=O)c(C)c1 [Compound A135]
- ECHCG POST percentage damage (five point scale) [1]: 5 (5=80-100%)
- LOLPE POST percentage damage (five point scale) (Lolium perenne (LOLPE) [2]): 5 (5=80-100%)
- AVEFA POST percentage damage (five point scale) (Avena fatua (AVEFA) [3]): 5 (5=80-100%)
- SETFA POST percentage damage (five point scale) (Setaria faberi (SETFA) [4]): 5 (5=80-100%)
- SETFA PRE percentage damage (five point scale) (Setaria faberi (SETFA) [5]): 5 (5=80-100%)
- ECHCG PRE percentage damage (five point scale) [6]: 5 (5=80-100%)
- LOLPE PRE percentage damage (five point scale) (Lolium perenne (LOLPE) [7]): 5 (5=80-100%)
- AVEFA PRE percentage damage (five point scale) (Avena fatua (AVEFA) [8]): 5 (5=80-100%)

Compound: CC#Cc1cc(C)c(C2=C(OC(=O)OC)CC3(CCN(C(=O)NC(=O)c4ccccn4)CC3)CC2=O)c(C)c1 [Compound P46]
- ECHCG POST percentage damage (five point scale) [1]: 5 (5=80-100%)
- LOLPE POST percentage damage (five point scale) (Lolium perenne (LOLPE) [2]): 5 (5=80-100%)
- AVEFA POST percentage damage (five point scale) (Avena fatua (AVEFA) [3]): 5 (5=80-100%)
- SETFA POST percentage damage (five point scale) (Setaria faberi (SETFA) [4]): 5 (5=80-100%)
- SETFA PRE percentage damage (five point scale) (Setaria faberi (SETFA) [5]): 5 (5=80-100%)
- ECHCG PRE percentage damage (five point scale) [6]: 5 (5=80-100%)
- LOLPE PRE percentage damage (five point scale) (Lolium perenne (LOLPE) [7]): 5 (5=80-100%)
- AVEFA PRE percentage damage (five point scale) (Avena fatua (AVEFA) [8]): 2 (2=20-39%)

Compound: CC#Cc1cc(C)c(C2C(=O)CC3(CCN(C(=O)c4cnc(C#N)s4)CC3)CC2=O)c(C)c1 [Compound A106]
- ECHCG POST percentage damage (five point scale) [1]: 3 (3=40-59%)
- LOLPE POST percentage damage (five point scale) (Lolium perenne (LOLPE) [2]): 3 (3=40-59%)
- AVEFA POST percentage damage (five point scale) (Avena fatua (AVEFA) [3]): 5 (5=80-100%)
- SETFA POST percentage damage (five point scale) (Setaria faberi (SETFA) [4]): 5 (5=80-100%)
- SETFA PRE percentage damage (five point scale) (Setaria faberi (SETFA) [5]): 4 (4=60-79%)
- ECHCG PRE percentage damage (five point scale) [6]: 4 (4=60-79%)
- LOLPE PRE percentage damage (five point scale) (Lolium perenne (LOLPE) [7]): 3 (3=40-59%)
- AVEFA PRE percentage damage (five point scale) (Avena fatua (AVEFA) [8]): 2 (2=20-39%)

Compound: CC#Cc1cc(C)c(C2C(=O)CC3(CCN(C(=O)c4ccnn4C)CC3)CC2=O)c(C)c1 [Compound A136]
- ECHCG POST percentage damage (five point scale) [1]: 5 (5=80-100%)
- LOLPE POST percentage damage (five point scale) (Lolium perenne (LOLPE) [2]): 5 (5=80-100%)
- AVEFA POST percentage damage (five point scale) (Avena fatua (AVEFA) [3]): 5 (5=80-100%)
- SETFA POST percentage damage (five point scale) (Setaria faberi (SETFA) [4]): 5 (5=80-100%)
- SETFA PRE percentage damage (five point scale) (Setaria faberi (SETFA) [5]): 5 (5=80-100%)
- ECHCG PRE percentage damage (five point scale) [6]: 5 (5=80-100%)
- LOLPE PRE percentage damage (five point scale) (Lolium perenne (LOLPE) [7]): 5 (5=80-100%)
- AVEFA PRE percentage damage (five point scale) (Avena fatua (AVEFA) [8]): 5 (5=80-100%)

Compound: CC#Cc1cc(C)c(C2C(=O)CC3(CCN(C(=O)c4cc(C)nc(C)n4)CC3)CC2=O)c(C)c1 [Compound A122]
- ECHCG POST percentage damage (five point scale) [1]: 5 (5=80-100%)
- LOLPE POST percentage damage (five point scale) (Lolium perenne (LOLPE) [2]): 5 (5=80-100%)
- AVEFA POST percentage damage (five point scale) (Avena fatua (AVEFA) [3]): 5 (5=80-100%)
- SETFA POST percentage damage (five point scale) (Setaria faberi (SETFA) [4]): 5 (5=80-100%)
- SETFA PRE percentage damage (five point scale) (Setaria faberi (SETFA) [5]): 5 (5=80-100%)
- ECHCG PRE percentage damage (five point scale) [6]: 5 (5=80-100%)
- LOLPE PRE percentage damage (five point scale) (Lolium perenne (LOLPE) [7]): 5 (5=80-100%)
- AVEFA PRE percentage damage (five point scale) (Avena fatua (AVEFA) [8]): 5 (5=80-100%)

Compound: CC#Cc1cc(C)c(C2C(=O)CC3(CCN(C(=O)c4cnn(C)n4)CC3)CC2=O)c(C)c1 [Compound A126]
- ECHCG POST percentage damage (five point scale) [1]: 5 (5=80-100%)
- LOLPE POST percentage damage (five point scale) (Lolium perenne (LOLPE) [2]): 5 (5=80-100%)
- AVEFA POST percentage damage (five point scale) (Avena fatua (AVEFA) [3]): 5 (5=80-100%)
- SETFA POST percentage damage (five point scale) (Setaria faberi (SETFA) [4]): 5 (5=80-100%)
- SETFA PRE percentage damage (five point scale) (Setaria faberi (SETFA) [5]): 5 (5=80-100%)
- ECHCG PRE percentage damage (five point scale) [6]: 5 (5=80-100%)
- LOLPE PRE percentage damage (five point scale) (Lolium perenne (LOLPE) [7]): 5 (5=80-100%)
- AVEFA PRE percentage damage (five point scale) (Avena fatua (AVEFA) [8]): 5 (5=80-100%)

Compound: CC#Cc1cc(C)c(C2C(=O)CC3(CCN(C(=O)c4nccnc4C)CC3)CC2=O)c(C)c1 [Compound A138]
- ECHCG POST percentage damage (five point scale) [1]: 5 (5=80-100%)
- LOLPE POST percentage damage (five point scale) (Lolium perenne (LOLPE) [2]): 5 (5=80-100%)
- AVEFA POST percentage damage (five point scale) (Avena fatua (AVEFA) [3]): 5 (5=80-100%)
- SETFA POST percentage damage (five point scale) (Setaria faberi (SETFA) [4]): 5 (5=80-100%)
- SETFA PRE percentage damage (five point scale) (Setaria faberi (SETFA) [5]): 5 (5=80-100%)
- ECHCG PRE percentage damage (five point scale) [6]: 5 (5=80-100%)
- LOLPE PRE percentage damage (five point scale) (Lolium perenne (LOLPE) [7]): 5 (5=80-100%)
- AVEFA PRE percentage damage (five point scale) (Avena fatua (AVEFA) [8]): 5 (5=80-100%)

Compound: CC#Cc1cc(C)c(C2C(=O)CC3(CCN(C(=O)NC(=O)C(C)C)CC3)CC2=O)c(C)c1 [Compound A142]
- ECHCG POST percentage damage (five point scale) [1]: 5 (5=80-100%)
- LOLPE POST percentage damage (five point scale) (Lolium perenne (LOLPE) [2]): 5 (5=80-100%)
- AVEFA POST percentage damage (five point scale) (Avena fatua (AVEFA) [3]): 5 (5=80-100%)
- SETFA POST percentage damage (five point scale) (Setaria faberi (SETFA) [4]): 5 (5=80-100%)
- SETFA PRE percentage damage (five point scale) (Setaria faberi (SETFA) [5]): 5 (5=80-100%)
- ECHCG PRE percentage damage (five point scale) [6]: 5 (5=80-100%)
- LOLPE PRE percentage damage (five point scale) (Lolium perenne (LOLPE) [7]): 5 (5=80-100%)
- AVEFA PRE percentage damage (five point scale) (Avena fatua (AVEFA) [8]): 4 (4=60-79%)

Compound: CC#Cc1cc(C)c(C2C(=O)CC3(CCN(C(=O)c4cn(C)cn4)CC3)CC2=O)c(C)c1 [Compound A117]
- ECHCG POST percentage damage (five point scale) [1]: 5 (5=80-100%)
- LOLPE POST percentage damage (five point scale) (Lolium perenne (LOLPE) [2]): 5 (5=80-100%)
- AVEFA POST percentage damage (five point scale) (Avena fatua (AVEFA) [3]): 5 (5=80-100%)
- SETFA POST percentage damage (five point scale) (Setaria faberi (SETFA) [4]): 5 (5=80-100%)
- SETFA PRE percentage damage (five point scale) (Setaria faberi (SETFA) [5]): 5 (5=80-100%)
- ECHCG PRE percentage damage (five point scale) [6]: 5 (5=80-100%)
- LOLPE PRE percentage damage (five point scale) (Lolium perenne (LOLPE) [7]): 4 (4=60-79%)
- AVEFA PRE percentage damage (five point scale) (Avena fatua (AVEFA) [8]): 2 (2=20-39%)
